From US4088757A, “4'Alpha- and 4'beta-amino-4'-desoxyoleandrins, and pharmaceutical composition containing same” (Beiersdorf Aktiengesellschaft, priority 1976, dated 1978)
In brackets after ≈: the same amount, converted by molar mass.

Key:
[1] = assay type: in vivo; conditions: cat, intravenous; for preferential route of elimination (in words): tritium-marked drug; for Biliary Elimination: tritium-marked drug in feces; for Biliary Elimination / Renal Elimination: % of activity originally injected; for Renal Elimination: tritium-marked drug in urine
Protocol: 1. The elimination rate of both drugs in the cat was tested by intravenously injecting a fixed amount of the drugs into the cat and recording the amount of tritium-marked drug appearing in the urine and feces. The results are stated as a percentage of the activity of the tritium-marked glycoside originally injected.

[2] = tested on: papillary muscle of the guinea pig; assay: inotropic effect on the papillary muscle of the guinea pig in vitro; conditions: Cavia porcellus, 40% ethanol and 60% water mixture, read-out: ED50 (amount of drug necessary to increase the contractile force of the muscle by 50%)
Protocol: 2. The inotropic effect of both drugs was tested on the papillary muscle of the guinea pig in vitro. The muscle was connected to a recording device and then placed in a bath of 0.1% solution of the drug to be tested in a mixture of 40% ethanol and 60% water. This solution was gradually diluted with water and a dosage versus contraction graph plotted. The amount of drug necessary to increase the contractile force of the muscle by 50% (ED50) was then calculated.

Structure (SMILES)	preferential route of elimination (in words) [1]	Biliary Elimination [1] [%]	Renal Elimination [1] [%]	EC50 [2] [µg/mL]
COC1CC(OC2CCC3(C)C(CCC4C3CCC3(C)C(C5=CC(=O)OC5)C(OC(C)=O)CC43O)C2)OC(C)C1N (centres unmarked) [4'-amino-4'-desoxy-oleandrin]	preferentially eliminated by the biliary system	11.1	2.5	0.13 (≈ 0.226 µM)
C[C@H]1O[C@@H](O[C@H]2[C@@H](O)C[C@H](O[C@H]3[C@@H](O)C[C@H](O[C@H]4CC[C@@]5(C)[C@H](CC[C@@H]6[C@@H]5C[C@@H](O)[C@]5(C)[C@@H](C7=CC(=O)OC7)CC[C@]65O)C4)O[C@@H]3C)O[C@@H]2C)C[C@H](O)[C@@H]1O [digoxin]	preferentially eliminated by the renal system	4.7	6.3	1.1 (≈ 1.41 µM)
